Data from patent publication US12642799B2, “Composition and method for treating COVID-19” (University of South Florida, priority 2021, dated 2026).

Assays:
[1] = test system: SARS CoV-2 (variants) infected Calu3 cells; assay type: cell-based
TNFα, IL-6 = assay type: cell-based

Row | Compound | inhibition of viral replication (SARS CoV2 N protein mRNA) [1] | inhibition of inflammatory cytokine production (TNFα, IL-6 mRNA) (TNFα, IL-6)
1 | N[C@@H](CC(=O)N1CCn2c(nnc2C(F)(F)F)C1)Cc1cc(F)c(F)cc1F [sitagliptin] | equally effective | equally effective
2 | sitagliptin monohydrate phosphate | equally effective | equally effective
